Among the data in EP0158299A2, “Substituted phenylethyl derivatives, process for their preparation and pharmaceutical agents” (Merz & Co. GmbH & Co., priority 1984, dated 1985) are MIC values, retold here.

≈ marks a conversion by molar mass, not a printed value. Where a name gives a salt, the structure may show the parent alone. Bounds are passed on as bounds.

Common to all, as to format: cell-based
One assay relates to T.m. As to the kind of experiment: serial dilution test, fungistatic activity (MIC). To be noted: Pilzspezies T.m.; read-out: Minimale Hemmkonzentrationen. From the text: (§1) Die erfindungemäßen Verbindungen wurden im Reihenverdünnungstest auf ihre fungistatische Wirksamkeit gegen verschiedene Pilzspezies und gegen verschiedene Bakterienstämme geprüft. Die so ermittelten minimalen Hemmkonzentrationen (MHK) sind in den folgenden Tabellen wiedergegeben: […]

The test system of another assay is A.f. As to the kind of experiment: serial dilution test, fungistatic activity (MIC). To be noted: Pilzspezies A.f.; read-out: Minimale Hemmkonzentrationen.
Description: as §1

A further assay has as its system S.s. Description: serial dilution test, fungistatic activity (MIC). To be noted: Pilzspezies S.s.; read-out: Minimale Hemmkonzentrationen.
Description: as §1

The test system of another assay is C.a. Description: serial dilution test, fungistatic activity (MIC). To be noted: Pilzspezies C.a.; read-out: Minimale Hemmkonzentrationen.
Description: as §1

The subject of another assay is C.t. Description: serial dilution test, fungistatic activity (MIC). To be noted: Pilzspezies C.t.; read-out: Minimale Hemmkonzentrationen.
Description: as §1

In another assay the test system is T.r. As to the kind of experiment: serial dilution test, fungistatic activity (MIC). To be noted: Pilzspezies T.r.; read-out: Minimale Hemmkonzentrationen.
Description: as §1

A further assay has as its system Streptococcus faecalis. Description: serial dilution test against bacterial strains (MIC). To be noted: Enterococcus faecalis; Bakterienstämme S.f. = Streptococcus faecalis; read-out: Minimale Hemmkonzentrationen.
Description: as §1

Another assay has as its system Staphylococcus aureus. The assay is described as above. To be noted: Bakterienstämme S.a. = Staphylococcus aureus; read-out: Minimale Hemmkonzentrationen.
Description: as §1

The next assay relates to Streptococcus pyogenes. The assay is described as above. To be noted: Bakterienstämme S.p. = Streptococcus pyogenes; read-out: Minimale Hemmkonzentrationen.
Description: as §1

The test system of the next assay is M.c. Description: serial dilution test, fungistatic activity (MIC). To be noted: Pilzspezies M.c.; read-out: Minimale Hemmkonzentrationen.
Description: as §1

The test system of another assay is A.c. Description: serial dilution test, fungistatic activity (MIC). To be noted: Pilzspezies A.c.; read-out: Minimale Hemmkonzentrationen.
Description: as §1

With `Clc1ccc(C(Cn2ccnc2)OCc2ccc(C3CC3(Cl)Cl)cc2)c(Cl)c1` (stereo not shown) [Verbind. III, 1-(2,4-Dichlorphenyl)-1-(4-(2,2-dichlorcyclopropyl)benzyloxy)-2-(1H-imidazol-1-yl)ethan-nitrat], the MIC in the assay on T.m. came to 0.8 µg/mL (≈ 1.75 µM); in the assay on A.f., 1.6 µg/mL (≈ 3.51 µM); in the assay on S.s., 0.2 µg/mL (≈ 0.438 µM); in the assay with C.a., 0.05 µg/mL (≈ 0.11 µM); in the assay with C.t. it was 3.1 µg/mL (≈ 6.8 µM); in the assay with T.r., 0.8 µg/mL (≈ 1.75 µM).
For `FC(F)(Oc1ccc(COC(Cn2ccnc2)c2ccc(Cl)cc2Cl)cc1)C(Cl)Cl` (stereo not shown) [Verbind. IV, 1-(2,4-Dichlorphenyl)-1-(4-(2,2-dichlor-1,1-difluor-ethoxy)benzyloxy)-2-(1H-imidazol-1-yl)ethan-hydrochlorid], the MIC amounted to 0.1 µg/mL with T.m.; 3.1 µg/mL in the assay on A.f.; 0.1 µg/mL in the assay with C.a.; 0.1 µg/mL in the assay with C.t.; 0.1 µg/mL with T.r.; 1.6 µg/mL in the assay with Streptococcus faecalis. In addition, the values for the MIC in the assay on Staphylococcus aureus and with Streptococcus pyogenes were 3.1 µg/mL and < 0.2 µg/mL, respectively.
`FC(F)(Oc1ccc(CON=C(Cn2ccnc2)c2ccc(Cl)cc2Cl)cc1)C(Cl)Cl` [Verbind. I, 1-(2,4-Dichlorphenyl)-2-(1H-imidazol-1-yl)-0-(4-(2,2-dichlor-1,1-difluorethoxy)benzyl)ethanonoxim-nitrat]: the MIC in the assay with T.m. is 6.25 µg/mL (≈ 12.3 µM); in the assay on A.f., 12.5 µg/mL (≈ 24.5 µM); in the assay with M.c. it was 3.1 µg/mL (≈ 6.09 µM); in the assay with C.a., 0.1 µg/mL (≈ 0.196 µM); with C.t., 0.8 µg/mL (≈ 1.57 µM); in the assay on T.r. it was 6.25 µg/mL (≈ 12.3 µM). In addition, the MIC was 1.6 µg/mL (≈ 3.14 µM) with A.c., 12.5 µg/mL (≈ 24.5 µM) with Streptococcus faecalis, 6.25 µg/mL (≈ 12.3 µM) in the assay on Staphylococcus aureus and 0.8 µg/mL (≈ 1.57 µM) in the assay on Streptococcus pyogenes.
In the case of `Clc1ccc(C(Cn2ccnc2)=NOCc2ccc(C3CC3(Cl)Cl)cc2)c(Cl)c1` (stereo not shown) [Verbind. II, 1-(2,4-Dichlorphenyl)-2-(1H-imidazol-1-yl)-0-(4-(2,2-di-chlorcyclopropyl)benzyl)ethanonoxim-nitrat], the MIC with T.m. turned out to be 12.5 µg/mL (≈ 26.6 µM); in the assay on A.f., 25 µg/mL (≈ 53.3 µM); in the assay on S.s., 1.6 µg/mL (≈ 3.41 µM); in the assay on C.a., 3.1 µg/mL (≈ 6.61 µM); in the assay on C.t., 25 µg/mL (≈ 53.3 µM); with T.r., 6.2 µg/mL (≈ 13.2 µM).
For the compound `FC(Cl)C(F)(F)Oc1ccc(COC(Cn2ccnc2)c2ccc(Cl)cc2Cl)cc1` (stereo not shown) [Verbind. VI, 1-(2,4-Dichlorphenyl)-1-(4-(2-chlor-1,1,2-trifluorethoxy)benzyloxy)-2-(1H-imidazol-1-yl)ethan-nitrat], the MIC is 0.8 µg/mL (≈ 1.67 µM) in the assay on T.m.; 1.6 µg/mL (≈ 3.34 µM) with A.f.; 0.1 µg/mL (≈ 0.208 µM) in the assay on S.s.; 0.2 µg/mL (≈ 0.417 µM) with M.c.; 0.05 µg/mL (≈ 0.104 µM) in the assay with C.a.; 1.6 µg/mL (≈ 3.34 µM) in the assay on C.t.. Besides, the MIC with T.r. was found to be 0.8 µg/mL (≈ 1.67 µM).
